Source: patent publication US8551984B2, “Aminopyrimidines as SYK inhibitors” (Merck Sharp & Dohme Corp., priority 2009, dated 2013)

Biological target: recombinant human SYK (GST-hSYK fusion protein) (Homo sapiens, UniProt P43405)
Experiment: biochemical
[1] = rhSYK Activity (IC50), recombinant human GST-SYK 5 pM, ATP 25 μM, biotinylated substrate peptide 250 nM, HTRF, 10-dose titration

Text: Homogeneous Time-Resolved Fluorescence (HTRF) Assay for the Recombinant Human SYK Enzyme:

Compound `Cc1cc(Nc2nccc([C@@H](C)F)n2)cc(-c2cnc([C@@]3(O)CC[C@H](C(=O)O)C(C)(C)C3)s2)c1` [116A-39] has an IC50 (rhSYK Activity, Table 116A) of under 100 nM.
With `CC(O)(c1ncc(-c2cc(Nc3nccc(C(F)(F)F)n3)cc(N3CCOCC3)c2)s1)C1CC1` (stereo not shown) [24-6] the IC50 (rhSYK Activity, Table 24) was under 100 nM.
For `Cc1cc(Nc2nccc(C(F)(F)F)n2)cc(-c2cnc(CCC(N)=O)s2)c1` [Example 79-2], the IC50 [1] was under 100 nM.
`COC(=O)C1CCC(O)(c2ncc(-c3cc(COC(C)=O)cc(Nc4nccc(C(F)(F)F)n4)c3)s2)CC1(C)C` (stereo not shown) [Example 33A-49] showed an IC50 (rhSYK Activity, Table 33-A) of under 100 nM.
In the case of `Cc1cc(Nc2nccc(C(F)(F)F)n2)cc(-c2cnc(C3(O)CCN(C(=O)c4cccnc4)CC3)s2)c1` [Example 54A-8], the IC50 (RHSYK Activity, Table 54A) is reported as under 100 nM.
`COc1nc(Nc2cc(C)cc(-c3cnc([C@]4(O)CC[C@@H](O)CC4)s3)c2)ncc1F` [8A-3] showed an IC50 (rhSYK Activity, Table 8A) of under 100 nM.
`Cc1cc(Nc2nccc(OCCO)n2)cc(-c2cnc(C3(O)CCC(C(=O)O)C(C)(C)C3)s2)c1` (stereo not shown) [Example 159, 4-hydroxy-4-[5-(3-{[4-(2-hydroxyethoxy)pyrimidin-2-yl]amino}-5-methylphenyl)-1,3-thiazol-2-yl]-2,2-dimethylcyclohexanecarboxylic acid] was tested, and the IC50 [1] was under 100 nM.
`Cc1cc(Nc2nccc(SCCCCO)n2)cc(-c2cnc(C3(O)CCC3)s2)c1` [Example 108A-46] gave an IC50 (rhSYK Activity, Table 108A) of under 100 nM.
Compound `Cc1cc(Nc2nccc(C3CC3)n2)cc(-c2cnc(C3(O)CCC(C(=O)O)C(C)(C)C3)s2)c1` (stereo not shown) [Example 113A-51] has an IC50 (rhSYK Activity, Table 113A) of under 100 nM.
`Cc1cc(Nc2ncc(F)c(C)n2)cc(-c2cnc([C@]3(O)CC[C@@H](O)CC3)s2)c1` [8A-1] was tested, and the IC50 (rhSYK Activity, Table 8A) was under 100 nM.
`CCOC(=O)C1CC(C)C(O)(c2ncc(-c3cc(C)cc(Nc4nccc(C)n4)c3)s2)CC1C` (stereo not shown) [Example 113B-8] gave an IC50 (rhSYK Activity, Table 113B) of under 100 nM.
`CC(=O)Nc1cc(Nc2nccc(OC3CCN(C(=O)OC(C)(C)C)CC3)n2)cc(-c2cnc(C3(O)CCC3)s2)c1` [109(1), tert-butyl 4-[2-({3-(acetylamino)-5-[2-(1-hydroxycyclobutyl)-1,3-thiazol-5-yl]phenylamino)pyrimidin-4-yl]oxy}piperidine-1-carboxylate] gave an IC50 [1] of 100 to 1000 nM.
For `CC(O)c1ncc(-c2cccc(Nc3nccc(OC4CCNCC4)n3)c2)s1` (stereo not shown) [Example 94B-10], the IC50 [1] was under 100 nM.
`CC(=O)N1CCN(Cc2ncc(-c3cc(C)cc(Nc4nccc(C(F)(F)F)n4)c3)s2)CC1` [Example 88B-6] gave an IC50 [1] of under 100 nM.
In the case of `O=C(O)[C@H]1CC[C@@](O)(c2ncc(-c3cc(Cl)cc(Nc4nccc(C(F)(F)F)n4)c3)s2)CC1` [Example 33A-22], the IC50 (rhSYK Activity, Table 33-A) is reported as under 100 nM.
`Cc1cc(Nc2nccc(C(F)(F)F)n2)cc(-c2cnc(CNCCCO)s2)c1` [Example 88A-19] showed an IC50 [1] of under 100 nM.
`CC(O)(c1ncc(-c2cc(Nc3nccc(C(F)(F)F)n3)cc(N3CCOCC3)c2)s1)C(F)(F)F` (stereo not shown) [24-7] showed an IC50 (rhSYK Activity, Table 24) of under 100 nM.
Work on `Cc1cc(Nc2ncc(F)c(C)n2)cc(-c2cnc(C3(NS(N)(=O)=O)COC3)s2)c1` [Example 63-1] yielded an IC50 (rhSYK Activity, Table 63) of under 100 nM.
With `Cc1cc(Nc2nccc(C(F)(F)F)n2)cc(-c2cnc(-c3ccc[nH]3)s2)c1` [Example 114-8] the IC50 [1] was under 100 nM.
For `Cc1cc(Nc2nccc(OCc3ccccc3)n2)cc(-c2cnc(C(C)(O)C(F)(F)F)s2)c1` (stereo not shown) [Example 94B-1, 2-[5-(3-{[4-(benzyloxy)pyrimidin-2-yl]-amino}-5-methylphenyl)-1,3-thiazol-2-yl]-1,1,1-trifluoropropan-2-ol], the IC50 [1] was under 100 nM.
For `Cc1cc(Nc2nccc(C(F)(F)F)n2)cc(-c2cnc(C3(O)CCNC(=O)CC3)s2)c1Br` (single isomer, unassigned) [Example 111-1], the IC50 [1] was 100 to 1000 nM.
With `Cc1cc(Nc2nccc(C(F)(F)F)n2)cc(-c2cnc(C3(O)CCCN(C(=O)Cc4n[nH]c(=O)[nH]4)CC3)s2)c1` (stereo not shown) [Example 54D-93] the IC50 (rhSYK Activity, Table 54D) was under 100 nM.
`Cc1cc(Nc2nccc(C(F)(F)F)n2)cc(-c2cnc(CN3CCCC(C(N)=O)C3)s2)c1` (stereo not shown) [Example 88B-10] showed an IC50 [1] of under 100 nM.
In the case of `CC(C)(c1ncc(-c2cccc(Nc3nccc(C(F)(F)F)n3)c2)s1)S(C)(=O)=O` [74A-2], the IC50 (rhSYK Activity, Table 74A) is reported as under 100 nM.
For `Cc1cc(Nc2nccc(C(F)(F)F)n2)cc(-c2cnc(C3(O)CCN(C(=O)c4ccno4)C3)s2)c1` (stereo not shown) [54B-29], the IC50 (rhSYK Activity, Table 54B) was under 100 nM.
With `Cc1cc(Nc2nccc(C(F)(F)F)n2)cc(-c2cnc(CN3CCOC3=O)s2)c1` [Example 92-1] the IC50 [1] was under 100 nM.
`Cc1cc(Nc2nccc(C(F)(F)F)n2)cc(-c2cnc(C3(O)CCCN(C(=O)CS(C)(=O)=O)CC3)s2)c1` (stereo not shown) [Example 54D-83] was tested, and the IC50 (rhSYK Activity, Table 54D) was under 100 nM.
Compound `Cc1cc(Nc2nccc(OC(C)C)n2)cc(-c2cnc([C@@]3(O)CC[C@H](C(N)=O)C(C)(C)C3)s2)c1` [Example 119, (1S,4R)-4-hydroxy-2,2-dimethyl-4-[5-(3-methyl-5-{[4-(propan-2-yloxy)pyrimidin-2-yl]-amino}phenyl)-1,3-thiazol-2-yl]cyclohexanecarboxamide] has an IC50 [1] of under 100 nM.
Compound `Cc1cc(Nc2nccc(C(F)(F)F)n2)cc(-c2cnc(C3CCCCC3)s2)c1` [Example 130] has an IC50 [1] of 100 to 1000 nM.
In the case of `Cc1cc(Nc2nccc(C(F)(F)F)n2)cc(-c2cnc(C3(O)CCCN(C(=O)c4cc(O)ccn4)CC3)s2)c1` (stereo not shown) [Example 54D-87], the IC50 (rhSYK Activity, Table 54D) is reported as under 100 nM.
Compound `Cc1cc(Nc2nccc(C(F)(F)F)n2)cc(-c2cnc(C3(O)CCCN(C(=O)c4cccc(O)n4)CC3)s2)c1` (stereo not shown) [Example 54D-86] has an IC50 (rhSYK Activity, Table 54D) of under 100 nM.
Work on `Cc1cc(Nc2nccc(C(C)C)n2)cc(-c2cnc(C3(O)CCCN(C(=O)Cn4cnnn4)CC3)s2)c1` (stereo not shown) [Example 54D-19] yielded an IC50 (rhSYK Activity, Table 54D) of under 100 nM.
`Cc1cc(Nc2nccc(C(F)(F)F)n2)cc(-c2cnc(C3(O)CCC(NC(=O)CC(N)C(F)(F)F)CC3)s2)c1` (stereo not shown) [Example 54E-37] showed an IC50 (rhSYK Activity, Table 54E) of under 100 nM.
Work on `Cc1cc(Nc2nccc(C(F)(F)F)n2)cc(-c2cnc(C3(O)CNC3)s2)c1` [Example 33C-13] yielded an IC50 (rhSYK Activity, Table 33C) of under 100 nM.
Work on `Cc1cc(Nc2nccc(C(F)(F)F)n2)cc(-c2cnc(-c3cnn(C[C@@H](O)CO)c3)s2)c1` [Example 115-4] yielded an IC50 (rhSYK Activity, Table 115) of under 100 nM.
In the case of `C=C(c1ccc(C(=O)OC)cc1)c1ncc(-c2cc(C)cc(Nc3nccc(C(F)(F)F)n3)c2)s1` [Example 113D-2], the IC50 (rhSYK Activity, Table 113D, upper part) is reported as 100 to 1000 nM.
`COC(=O)C1CCC(C(=O)N2CCCC(O)(c3ncc(-c4cc(C)cc(Nc5nccc(C(F)(F)F)n5)c4)s3)CC2)CC1` (stereo not shown) [Example 54D-111] gave an IC50 (rhSYK Activity, Table 54D) of under 100 nM.
In the case of `Cc1cc(Nc2nccc(C(F)(F)F)n2)cc(-c2cnc(C(=O)NCC3COCCO3)s2)c1` (stereo not shown) [Example 87A-20], the IC50 [1] is reported as under 100 nM.
For `Cc1cc(Nc2nccc(C(F)(F)F)n2)cc(-c2cnc(CN3CCCC3=O)s2)c1` [Example 92-2], the IC50 [1] was under 100 nM.
`Cc1cc(Nc2nccc(C(F)(F)F)n2)cc(-c2cnc(C3(O)CCCN(C(=O)Cn4ccnc4)CC3)s2)c1` (stereo not shown) [Example 54D-46] showed an IC50 (rhSYK Activity, Table 54D) of under 100 nM.
`Cc1cc(Nc2nccc(C(F)(F)F)n2)cc(-c2cnc(C3(O)CCN(C(=O)Cn4cncn4)CC3)s2)c1` [Example 54A-37] showed an IC50 (RHSYK Activity, Table 54A) of under 100 nM.
In the case of `O=C(Nc1cc(Nc2nccc(OC3CCOCC3)n2)cc(-c2cnc(C3(O)CCC3)s2)c1)C(F)(F)F` [Example 109-7], the IC50 (rhSYK Activity, Table 109) is reported as 100 to 1000 nM.
In the case of `COC(=O)C1CCC(O)(c2ncc(-c3cc(Nc4nccc(C(F)(F)F)n4)cc(C4CC4)c3)s2)CC1(C)C` (stereo not shown) [Example 33A-61], the IC50 (rhSYK Activity, Table 33-A) is reported as under 100 nM.
`CC1(C)C[C@@](O)(c2ncc(-c3cc(CN)cc(Nc4nccc(C(F)(F)F)n4)c3)s2)CC[C@@H]1C(=O)O` [Example 123, (1S,4R)-4-{5-[3-(aminomethyl)-5-{[4-(trifluoromethyl)pyrimidin-2-yl]amino}phenyl]-1,3-thiazol-2-yl}-4-hydroxy-2,2-dimethylcyclohexanecarboxylic acid] showed an IC50 [1] of under 100 nM.
In the case of `Cc1cc(Nc2nccc(C(F)(F)F)n2)cc(-c2cnc(C3=CCNC(=O)CC3)s2)c1` [Example 36B-2], the IC50 (rhSYK Activity, Table 36B) is reported as under 100 nM.
Compound `Cc1cc(Nc2nccc(C(F)(F)F)n2)cc(-c2cnc(CNCC(C)O)s2)c1` (stereo not shown) [Example 88A-17] has an IC50 [1] of under 100 nM.
For `CCOC(=O)c1cccnc1N1CCC(O)(c2ncc(-c3cc(C)cc(Nc4nccc(C(F)(F)F)n4)c3)s2)CC1` [Example 33C-16], the IC50 (rhSYK Activity, Table 33C) was 100 to 1000 nM.
`Cc1cc(Nc2nccc(C(F)(F)F)n2)cc(-c2cnc(C3(O)CCCN(C(=O)CC(N)=O)CC3)s2)c1` (stereo not shown) [Example 54D-22] was tested, and the IC50 (rhSYK Activity, Table 54D) was under 100 nM.
`Cc1cc(Nc2nccc(C(F)(F)F)n2)cc(-c2cnc(C3(O)CCN(C(=O)C4CC(O)C4)CC3)s2)c1` (stereo not shown) [Example 54A-33] gave an IC50 (RHSYK Activity, Table 54A) of under 100 nM.
Work on `Cc1cc(Nc2nccc(C(O)C3CC3)n2)cc(-c2cnc(C3(O)CCC(C(=O)O)C(C)(C)C3)s2)c1` (single isomer, unassigned) [Example 100A-18] yielded an IC50 [1] of under 100 nM.
`Cc1cc(Nc2nccc(C(F)(F)F)n2)cc(-c2cnc(C3(O)CCCN(C(=O)CC(=O)O)CC3)s2)c1` (single isomer, unassigned) [Example 54D-25] showed an IC50 (rhSYK Activity, Table 54D) of under 100 nM.
Compound `Cc1cc(Nc2nccc(C(F)(F)F)n2)cc(-c2cnc(C3=CC(=O)CCC3)s2)c1` [Example 36A-7] has an IC50 (rhSYK Activity, Table 36A) of under 100 nM.
With `Cc1cc(Nc2nccc(C(F)(F)F)n2)cc(-c2cnc(C3(O)CCCN(C(=O)C(O)C(C)(C)O)CC3)s2)c1` (stereo not shown) [Example 54D-77] the IC50 (rhSYK Activity, Table 54D) was under 100 nM.
Compound `Cc1cc(Nc2nccc(C)n2)cc(-c2cnc(C3(O)CCNC3)s2)c1` (stereo not shown) [54B-12] has an IC50 (rhSYK Activity, Table 54B) of under 100 nM.
`Cc1cc(Nc2nccc(C(F)(F)F)n2)cc(-c2cnc(CCC(C)(C)O)s2)c1` [Example 80, 2-methyl-4-[5-(3-methyl-5-{[4-(trifluoromethyl)pyrimidin-2-yl]amino}phenyl)-1,3-thiazol-2-yl]butan-2-ol] was tested, and the IC50 [1] was under 100 nM.
`COC(=O)C1CCC(O)(c2ncc(-c3cc(C)cc(Nc4ncc(C(F)(F)F)c(OC)n4)c3)s2)CC1(C)C` (stereo not shown) [Example 100A-27] was tested, and the IC50 [1] was 1000 to 10000 nM.
`CC(O)c1ncc(-c2cc(Nc3nccc(C(F)(F)F)n3)cc(N3CCOCC3)c2)s1` (stereo not shown) [24-1] gave an IC50 (rhSYK Activity, Table 24) of under 100 nM.
For `Cc1cc(Nc2nccc(C(F)(F)F)n2)cc(-c2cnc(CNCC3CCC(=O)N3)s2)c1` (stereo not shown) [Example 88, 5-[({[5-(3-methyl-5-{[4-(trifluoromethyl)pyrimidin-2-yl]amino}phenyl)-1,3-thiazol-2-yl]-methyl}amino)methyl]pyrrolidin-2-one], the IC50 [1] was under 100 nM.
